Source: the NIST ThermoML archive (doi:10.1021/je300377a)

Assay: molar heat capacity at constant pressure
Details: 101.33 kPa, Liquid

CCCCCCCC[N+]1(CC)CCCCC1.O=S(=O)([N-]S(=O)(=O)C(F)(F)F)C(F)(F)F
Details	molar heat capacity at constant pressure [J/K/mol]
265.01 K	703.63
275 K	719.33
285.01 K	730.47
295.01 K	743.64
305.01 K	763.4
315.01 K	782.14
325.01 K	799.37
335.02 K	814.56
345.02 K	829.25
355.01 K	844.96
365 K	868.26
375.01 K	882.44
385.02 K	903.72

CCCCCCCCn1cc[n+](C)c1.O=S(=O)([N-]S(=O)(=O)C(F)(F)F)C(F)(F)F
Details	molar heat capacity at constant pressure [J/K/mol]
265.02 K	621.44
275 K	628.1
285.01 K	636.18
295.01 K	643.79
305.02 K	651.87
315.02 K	660.43
325.02 K	668.51
335.02 K	675.65
345.02 K	684.21
355.02 K	694.67
360 K	706.08
375.01 K	720.34
385.03 K	737.93

CCCCCCCC[n+]1ccccc1.O=S(=O)([N-]S(=O)(=O)C(F)(F)F)C(F)(F)F [1-octylpyridinium bis((trifluoromethyl)sulfonyl)amide]
Details	molar heat capacity at constant pressure [J/K/mol]
265.04 K	582.55
275.12 K	597.2
285.05 K	609.01
295.03 K	620.82
305.03 K	636.89
315.07 K	652.95
325.13 K	669.02
335.03 K	681.77
345.1 K	694.53
355 K	707.76
365.05 K	721.93
375.09 K	738.47
385.13 K	755.95

CCCC[N+]1(C)CCCC1.O=S(=O)([N-]S(=O)(=O)C(F)(F)F)C(F)(F)F
Details	molar heat capacity at constant pressure [J/K/mol]
265.04 K	472.25
275.12 K	484.93
285.06 K	492.11
295.03 K	498.44
305.03 K	507.31
315.07 K	515.76
325.13 K	524.63
335.04 K	531.39
345.11 K	539.84
355 K	547.87
365.05 K	554.62
375.09 K	563.07
385.14 K	576.17

CCCCCCCC[N+]1(C)CCCC1.O=S(=O)([N-]S(=O)(=O)C(F)(F)F)C(F)(F)F
Details	molar heat capacity at constant pressure [J/K/mol]
265.06 K	605.8
275.13 K	616.33
285.07 K	626.86
295.04 K	636.43
305.04 K	647.91
315.07 K	658.44
325.14 K	668.97
335.04 K	679.49
345.11 K	690.02
355.01 K	700.55
365.05 K	711.08
375.01 K	721.6
385.14 K	732.13
